Reference: PubChem BioAssay AID743500 (The Scripps Research Institute Molecular Screening Center, 2014)
The source made the active and inactive calls. The rule behind the calls is not given here.

System: CCHFV L protein vOTU protease domain (Crimean-Congo hemorrhagic fever virus)
Test: CCHFV vOTU inhibition, late-stage follow-up, biochemical, fluorescence, Ub-AMC substrate, assay provider (AID 743500)
Settings: Recombinant vOTU, Ub-AMC cleavage fluorescence, hits give high values

## CC1(C)C=C2C(=NN(c3ccccc3)C(N)=C2C#N)CO1
At 23.49 µM
  inhibition: 82.1%

## O=C(COC(=O)c1ccc([N+](=O)[O-])s1)NCc1ccc(F)cc1
At 40.58 µM
  inhibition: 41%

## CC1CCCC(NC(=O)COC(=O)c2ccc([N+](=O)[O-])s2)C1C (stereo not drawn)
At 31.32 µM
  inhibition: 22.6%

## O=C(c1ccco1)[C@@H]1[C@@H]2C(=O)N(c3ccc(Br)cc3)C(=O)[C@@H]2C2c3ccccc3C=CN21 (stereo partly drawn)
At 11.01 µM
  inhibition: 79.7%

## O=C1Cc2ccccc2C(=O)N1
At 0.6 µM
  inhibition: 57.1%

## COc1cc(NC(=O)COC(=O)c2ccc([N+](=O)[O-])s2)cc(OC)c1OC
At 21.72 µM
  inhibition: 44.2%

## O=C(COC(=O)c1ccc([N+](=O)[O-])s1)Nc1ncc(C(F)(F)F)cc1Cl
At 27.79 µM
  inhibition: 42.1%

## COC(CNC(=O)c1ccc2c3c(onc13)-c1ccccc1C2=O)OC
At 24.19 µM
  inhibition: 51.7%

## NS(=O)(=O)c1ccc(NC(=O)COC(=O)c2ccc([N+](=O)[O-])s2)cc1
At 29.01 µM
  inhibition: 42.6%

## NS(=O)(=O)c1ccc(NC2=CC(=O)C(=O)c3ccccc32)cc1
At 11.51 µM
  inhibition: 71.8%

## Nc1cc2c(cc1Br)[nH]c(=O)c1ccccc12
At 4.57 µM
  inhibition: 12.7% (inactive)

## O=c1[nH]c(Nc2ccccc2)cc2cc(Br)ccc12
At 1.45 µM
  inhibition: 15.8% (inactive)

## COc1cc(Br)c(C(=O)c2nccc3cc(OC)c(OC)cc23)cc1OC
At 1.13 µM
  inhibition: 19.1% (inactive)

## CCOC(=O)N=Nc1c2ccccc2c2nc3no[nH]c3nc12
At 7.75 µM
  inhibition: 26.4%

## CCc1cc[n+](C2=C(NS(=O)(=O)c3cccs3)C(=O)c3ccccc3C2=O)cc1
At 14.16 µM
  inhibition: 18.8% (inactive)

## COC1=C(N)C(=O)c2nc(C)ccc2C1=O
At 4.98 µM
  inhibition: 71.9%

## Cc1c(Cl)cnc(NC(=O)COC(=O)c2ccc([N+](=O)[O-])s2)c1Cl
At 20.44 µM
  inhibition: 55.3%

## O=C(/C=C/c1ccc(O)cc1)c1ccc(NC2=C(N3CCCCC3)C(=O)c3ccccc3C2=O)cc1
At 10.17 µM
  inhibition: 41%

## CCn1nc(/C=C/c2ccccc2)nc2c(=O)n(C)c(=O)nc1-2
At 0.49 µM
  inhibition: 99%

## Cn1nc(-c2ccccn2)nc2c(=O)n(C)c(=O)nc1-2
At 1.16 µM
  inhibition: 94%

## CC1COCC(C)N1C1=C(Cl)C(=O)c2ccccc2C1=O (stereo not drawn)
At 14.67 µM
  inhibition: 23.4%

## O=C1C=C(Nc2ccccc2)c2ccccc2C1=O
At 15.55 µM
  inhibition: 80.2%

## O=C(NC1=C(NC2CCS(=O)(=O)C2)C(=O)c2ccccc2C1=O)c1ccccc1 (stereo not drawn)
At 14.2 µM
  inhibition: 49.8%

## Cc1ccc(N2C(=O)[C@@H]3[C@H](C2=O)C2c4ccccc4C=CN2[C@@H]3C(=O)c2ccco2)cc1 (stereo partly drawn)
At 5.2 µM
  inhibition: 41.3%

## O=C(COC(=O)c1ccc([N+](=O)[O-])s1)Nc1ccc(F)cc1
At 26.34 µM
  inhibition: 45.3%

## Cc1ccc2c(c1C)-c1c(ccc(C)c1C)C(=O)C2=O
At 18.9 µM
  inhibition: 66.2%

## COc1ccc2noc3c2c1C(=O)c1ccccc1-3
At 6.28 µM
  inhibition: 12.4% (inactive)

## O=C(NC1=CC(=O)c2ccccc2C1=O)c1ccccc1
At 12.37 µM
  inhibition: 48.8%

## Cc1ccc(NC2=CC(=O)C(=O)c3ccccc32)cc1
At 12.24 µM
  inhibition: 85.2%

## O=C(OCc1nnc(-c2ccccc2)o1)c1ccc([N+](=O)[O-])s1
At 26.04 µM
  inhibition: 55.6%

## O=C1Cc2ccccc2C(=O)N1Cc1ccccc1
At 1.31 µM
  inhibition: 49.6%

## NC1=C(Cl)C(=O)c2ccc(S(N)(=O)=O)cc2C1=O
At 0.39 µM
  inhibition: 63.1%

## COc1ccccc1NC(=O)COC(=O)c1ccc([N+](=O)[O-])s1
At 35.07 µM
  inhibition: 53.8%
